In patent US20160002273A1, “THIENO[3,2-D]PYRIMIDINE-6-CARBOXAMIDES AND ANALOGUES AS SIRTUIN MODULATORS” (GLAXOSMITHKLINE LLC, priority 2013, published 2016):
Read-outs that look alike come from different tables or passages of the source.

Experiments:
SIRT2 = molecular target: T1, SIRT2 (Homo sapiens, UniProt Q8IXJ6); assay: SIRT2 deacetylation of Trp 5-mer peptide, OAADPr mass spec assay; format: biochemical; design: His-SIRT2(1-389)
T1 sequence (Q8IXJ6 1-389): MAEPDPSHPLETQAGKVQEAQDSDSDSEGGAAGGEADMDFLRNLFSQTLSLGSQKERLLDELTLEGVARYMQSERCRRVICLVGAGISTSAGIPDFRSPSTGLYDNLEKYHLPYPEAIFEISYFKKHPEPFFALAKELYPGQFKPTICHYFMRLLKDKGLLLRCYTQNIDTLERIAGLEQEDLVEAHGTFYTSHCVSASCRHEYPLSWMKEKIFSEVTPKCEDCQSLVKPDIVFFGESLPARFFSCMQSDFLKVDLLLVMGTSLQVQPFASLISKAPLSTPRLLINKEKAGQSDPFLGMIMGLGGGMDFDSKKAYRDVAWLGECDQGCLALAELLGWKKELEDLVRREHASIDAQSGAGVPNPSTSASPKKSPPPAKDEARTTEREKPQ

SIRT1 = molecular target: T2, SIRT1 (Homo sapiens, UniProt Q96EB6); assay: SIRT1 deacetylation of Trp 5-mer peptide, OAADPr mass spec assay
T2 sequence (Q96EB6 1-747): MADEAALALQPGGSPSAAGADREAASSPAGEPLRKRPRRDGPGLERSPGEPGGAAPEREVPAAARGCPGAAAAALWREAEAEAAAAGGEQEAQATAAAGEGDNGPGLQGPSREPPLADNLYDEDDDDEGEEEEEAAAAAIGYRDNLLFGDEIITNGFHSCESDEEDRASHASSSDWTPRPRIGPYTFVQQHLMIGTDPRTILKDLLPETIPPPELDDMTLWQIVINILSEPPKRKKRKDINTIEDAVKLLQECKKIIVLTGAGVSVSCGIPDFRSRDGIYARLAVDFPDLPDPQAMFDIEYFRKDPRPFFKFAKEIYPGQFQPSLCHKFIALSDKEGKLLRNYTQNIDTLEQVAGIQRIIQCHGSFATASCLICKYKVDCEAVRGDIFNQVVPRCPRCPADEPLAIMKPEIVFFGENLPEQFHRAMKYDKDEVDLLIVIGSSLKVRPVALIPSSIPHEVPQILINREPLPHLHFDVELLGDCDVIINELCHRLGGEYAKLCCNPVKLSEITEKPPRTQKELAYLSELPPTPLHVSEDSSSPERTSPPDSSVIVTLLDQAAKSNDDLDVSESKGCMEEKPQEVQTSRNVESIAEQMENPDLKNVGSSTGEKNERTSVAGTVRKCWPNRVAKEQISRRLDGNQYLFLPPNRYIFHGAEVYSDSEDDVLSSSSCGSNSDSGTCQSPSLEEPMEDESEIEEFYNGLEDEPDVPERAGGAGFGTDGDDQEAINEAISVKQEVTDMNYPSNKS
Experimental: All assays were performed at room temperature in reaction buffer (50 mM HEPES, pH 7.5, 150 mM NaCl, 1 mM DTT, 0.05% BSA). […] To prepare the assays for analysis, 20 μL of reaction volume was mixed in 80 μL of 50:50 acetonitrile:methanol mixture. […] Peak data was integrated using RapidFire Integrator software (Agilent, Santa Clara, Calif.).

[1] = Trp 5-mer peptide and NAD at KM, mean of at least three determinations, read-out: IC50 (μM) SIRT2
[2] = Trp 5-mer peptide, class symbols, read-out: Trp SIRT2_IC50
[3] = Trp SIRT1_IC50, Trp 5-mer peptide, class symbols
[4] = read-out: IC50 (μM) SIRT1, Trp 5-mer peptide and NAD at KM, mean of at least three determinations

Compound	IC50 (SIRT2; [1])	IC50 (SIRT2; [2])	IC50 (SIRT1; [3])	IC50 (SIRT1; [4])	IC50 (SIRT2; Trp SIRT2_IC50, Trp 5-mer peptide, class symbols)
CC(C)(C)C(=O)NCCCC1CCN(c2ncnc3cc(C(N)=O)sc23)CC1 [Compound 29, 4-(4-(3-pivalamidopropyl)piperidin-1-yl)thieno[3,2-d]pyrimidine-6-carboxamide]	0.016 µM	< 1 µM	< 1 µM	0.042 µM	
Cc1c(C(N)=O)sc2c(N3CCC(CCNC(=O)C(C)(C)C)CC3)ncnc12 [Compound 39, 7-methyl-4-(4-(2-pivalamidoethyl)piperidin-1-yl)thieno[3,2-d]pyrimidine-6-carboxamide]	0.13 µM	< 1 µM	< 1 µM	0.18 µM	
NCCC1CCN(c2ncnc3cc(C(N)=O)sc23)CC1 [Compound 16a, 4-(4-(2-aminoethyl)piperidin-1-yl)thieno[3,2-d]pyrimidine-6-carboxamide]	0.11 µM		1 to 10 µM	1.6 µM	< 1 µM
NC(=O)c1cc2ncnc(N3CCC(CCN4CCCC4)CC3)c2s1 [Compound 34]	0.067 µM	< 1 µM	< 1 µM	0.11 µM	
NC(=O)c1cc2ncnc(N3CCC(CCNC(=O)c4ccc(C(=O)O)s4)CC3)c2s1 [Compound 18, 5-((2-(1-(6-carbamoylthieno[3,2-d]pyrimidin-4-yl)piperidin-4-yl)ethyl)carbamoyl)thiophene-2-carboxylic acid]	0.004 µM	< 1 µM	< 1 µM	0.014 µM	
CC(=O)NCCN1CCN(c2ncnc3cc(C(N)=O)sc23)CC1 [Compound 24]	0.17 µM	< 1 µM	1 to 10 µM	1.6 µM	
CC(C)(C)OC(=O)NCCC1CCN(c2ncnc3cc(C(N)=O)sc23)CC1 [Compound 15a, tert-butyl (2-(1-(6-carbamoylthieno[3,2-d]pyrimidin-4-yl)piperidin-4-yl)ethyl)carbamate]	0.005 µM	< 1 µM	< 1 µM	0.017 µM	
CC(C)(C)C(=O)NCCC1CCN(c2ccnc3cc(C(N)=O)sc23)CC1 [Compound 37, 7-(4-(2-pivalamidoethyl)piperidin-1-yl)thieno[3,2-b]pyridine-2-carboxamide]	0.028 µM	< 1 µM	< 1 µM	0.059 µM	
CC(C)(C)C(=O)NCCN1CCN(c2ncnc3cc(C(N)=O)sc23)CC1 [Compound 30, 4-(4-(2-pivalamidoethyl)piperazin-1-yl)thieno[3,2-d]pyrimidine-6-carboxamide]	0.017 µM	< 1 µM	< 1 µM	0.12 µM	
CC(=O)NCCC1CCN(c2ncnc3cc(C(N)=O)sc23)CC1 [Compound 20]	0.023 µM	< 1 µM	< 1 µM	0.11 µM	
CS(=O)(=O)NCCN1CCN(c2ncnc3cc(C(N)=O)sc23)CC1 [Compound 32, 4-(4-(2-(methylsulfonamido)ethyl)piperazin-1-yl)thieno[3,2-d]pyrimidine-6-carboxamide 2,2,2-trifluoroacetate]	0.053 µM	< 1 µM	< 1 µM	0.38 µM	
CC(=S)NCCN1CCN(c2ncnc3cc(C(N)=O)sc23)CC1 [Compound 26]	0.13 µM	< 1 µM	< 1 µM	0.49 µM	
NC(=O)c1cc2ncnc(N3CCN(CCN4CCCC4)CC3)c2s1 [Compound 35, 4-(4-(2-(Pyrrolidin-1-yl)ethyl)piperazin-1-yl)thieno[3,2-d]pyrimidine-6-carboxamide bis(2,2,2-trifluoroacetate)]	0.029 µM	< 1 µM	< 1 µM	0.053 µM	
CS(=O)(=O)NCCC1CCN(c2ncnc3cc(C(N)=O)sc23)CC1 [Compound 31]	0.001 µM	< 1 µM			
